In PMC4660213, “Identification and characterization of multiple rubisco activases in chemoautotrophic bacteria” (Nature Communications, 2015):

What was measured:
Type in all cases: biochemical
Q2O2 [1] = target: T1, Q2O2 (Acidithiobacillus ferrooxidans, UniProt B7J5E4, W83F); experiment: coupled ATPase assay (NADH oxidation); details: 25 °C; basal, no rubisco
T1 construct: gene cbbQ-2; co-expressed His6-ubiquitin fusions cleaved, E. coli, CbbQ6CbbO1 hetero-oligomer, 285 kDa measured

AfQ2 = target: T2, AfQ2 (Acidithiobacillus ferrooxidans, UniProt B7J5E4); experiment: coupled ATPase assay (NADH oxidation); details: 25 °C; basal, no rubisco
T2 construct: gene cbbQ-2; His6-ubiquitin fusion cleaved to native N terminus, E. coli, homohexamer, 173 kDa measured

Q2O2 [2] = target: T3, Q2O2 (Acidithiobacillus ferrooxidans, UniProt B7J5E4, W83L); experiment: coupled ATPase assay (NADH oxidation); details: 25 °C; basal, no rubisco
T3 construct: gene cbbQ-2; co-expressed His6-ubiquitin fusions cleaved, E. coli, CbbQ6CbbO1 hetero-oligomer, 285 kDa measured

AfM [3] = target: T4, AfM (Acidithiobacillus ferrooxidans, UniProt B7J5E3); experiment: spectrophotometric coupled rubisco assay; details: pH 8.0, 25 °C, 1 mM RuBP, 5 mM NaHCO3, 5 mM MgCl2; substrate of ECM, also inhibits the apoenzyme (loose ER complex)
T4 construct: gene cbbL2; His6-ubiquitin fusion cleaved to native N terminus, E. coli BL21 (DE3), hexamer (L6), 313 kDa measured

AfM [4] = target: T4, AfM; experiment: spectrophotometric coupled rubisco assay of ECMC complex; details: activated enzyme (ECM) preincubated with fourfold excess of carboxypentitol bisphosphate (1:1 CABP and carboxyribitol isomer); pH 8.0, 25 °C, 20 mM NaHCO3, Mg2+; active site but 5 mM NaHCO3
AfLS = target: T5, AfLS (Acidithiobacillus ferrooxidans, UniProt B7JA24); experiment: as above; details: activated enzyme (ECM) preincubated with fourfold excess of carboxypentitol bisphosphate (1:1 CABP and carboxyribitol isomer); pH 8.0, 25 °C, 20 mM NaHCO3, Mg2+; active site
T5 construct: gene cbbL2; cbbLS in pET30b, E. coli BL21, ion exchange and gel filtration, L8S8 hexadecamer, predicted 530 kDa; with Ribulose bisphosphate carboxylase small subunit
T5 sequence (B7JA24 whole entry): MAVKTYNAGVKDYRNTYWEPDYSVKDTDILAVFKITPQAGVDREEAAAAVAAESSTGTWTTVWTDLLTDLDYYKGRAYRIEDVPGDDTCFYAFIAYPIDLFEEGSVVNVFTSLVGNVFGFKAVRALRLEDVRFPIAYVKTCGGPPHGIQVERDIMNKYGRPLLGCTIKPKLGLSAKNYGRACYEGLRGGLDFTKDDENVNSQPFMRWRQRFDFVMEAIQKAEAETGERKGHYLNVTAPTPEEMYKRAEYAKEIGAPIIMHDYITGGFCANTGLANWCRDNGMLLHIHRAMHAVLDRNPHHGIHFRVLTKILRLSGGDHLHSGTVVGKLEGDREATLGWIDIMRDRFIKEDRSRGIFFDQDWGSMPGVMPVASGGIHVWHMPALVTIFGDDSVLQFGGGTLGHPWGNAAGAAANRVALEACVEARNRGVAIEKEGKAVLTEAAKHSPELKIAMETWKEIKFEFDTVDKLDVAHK
T5 sequence (B7JA25 1-118 partner): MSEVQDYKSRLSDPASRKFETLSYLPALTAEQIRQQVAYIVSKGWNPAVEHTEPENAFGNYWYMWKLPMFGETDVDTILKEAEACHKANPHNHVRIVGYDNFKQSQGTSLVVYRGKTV

T4 sequence (B7J5E3 entry or part of it): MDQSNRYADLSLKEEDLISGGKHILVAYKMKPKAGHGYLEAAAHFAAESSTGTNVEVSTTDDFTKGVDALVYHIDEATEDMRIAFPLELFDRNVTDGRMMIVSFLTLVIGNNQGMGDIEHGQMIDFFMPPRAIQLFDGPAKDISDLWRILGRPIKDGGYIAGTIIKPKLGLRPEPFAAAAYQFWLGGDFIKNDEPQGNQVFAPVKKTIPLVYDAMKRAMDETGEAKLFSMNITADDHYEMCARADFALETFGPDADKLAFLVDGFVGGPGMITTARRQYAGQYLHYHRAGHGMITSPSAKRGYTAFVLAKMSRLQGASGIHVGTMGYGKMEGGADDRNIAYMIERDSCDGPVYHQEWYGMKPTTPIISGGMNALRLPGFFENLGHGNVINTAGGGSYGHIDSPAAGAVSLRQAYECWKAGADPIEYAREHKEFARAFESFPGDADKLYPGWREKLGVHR
T3 sequence (B7J5E4 entry or part of it W83L): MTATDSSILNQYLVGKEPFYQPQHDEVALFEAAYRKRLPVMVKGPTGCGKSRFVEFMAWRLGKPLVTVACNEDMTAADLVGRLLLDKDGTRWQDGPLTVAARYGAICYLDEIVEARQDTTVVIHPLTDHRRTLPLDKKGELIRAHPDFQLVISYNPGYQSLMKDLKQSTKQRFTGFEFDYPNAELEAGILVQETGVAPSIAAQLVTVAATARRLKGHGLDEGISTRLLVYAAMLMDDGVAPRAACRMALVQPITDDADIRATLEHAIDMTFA
T3 sequence (B7J5E5 entry or part of it, stated change not applied, further chain): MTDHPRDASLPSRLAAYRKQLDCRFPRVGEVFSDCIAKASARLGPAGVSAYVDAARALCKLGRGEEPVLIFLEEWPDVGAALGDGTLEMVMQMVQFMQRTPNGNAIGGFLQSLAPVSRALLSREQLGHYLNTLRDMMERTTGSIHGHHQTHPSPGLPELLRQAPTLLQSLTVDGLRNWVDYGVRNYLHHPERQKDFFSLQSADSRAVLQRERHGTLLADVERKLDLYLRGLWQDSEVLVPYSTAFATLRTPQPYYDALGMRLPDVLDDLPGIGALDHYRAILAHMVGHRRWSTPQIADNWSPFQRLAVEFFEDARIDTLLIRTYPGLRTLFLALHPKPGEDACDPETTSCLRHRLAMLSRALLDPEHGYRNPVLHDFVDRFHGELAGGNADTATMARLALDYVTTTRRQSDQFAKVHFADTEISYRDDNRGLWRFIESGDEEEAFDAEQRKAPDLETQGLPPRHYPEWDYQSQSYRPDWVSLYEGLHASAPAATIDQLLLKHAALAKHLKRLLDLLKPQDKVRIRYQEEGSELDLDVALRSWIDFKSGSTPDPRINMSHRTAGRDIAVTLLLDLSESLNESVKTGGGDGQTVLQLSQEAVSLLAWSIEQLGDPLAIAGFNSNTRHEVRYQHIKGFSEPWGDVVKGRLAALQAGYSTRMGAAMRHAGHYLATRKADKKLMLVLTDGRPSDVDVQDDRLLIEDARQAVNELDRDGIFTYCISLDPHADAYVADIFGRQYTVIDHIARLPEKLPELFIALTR
T1 sequence (B7J5E4 entry or part of it W83F): as the sequence (B7J5E4 entry or part of it W83L) above, with L83F counted along it
T1 sequence (B7J5E5 entry or part of it, stated change not applied, further chain): as the sequence (B7J5E5 entry or part of it, stated change not applied, further chain) above
T2 sequence (B7J5E4 entry or part of it): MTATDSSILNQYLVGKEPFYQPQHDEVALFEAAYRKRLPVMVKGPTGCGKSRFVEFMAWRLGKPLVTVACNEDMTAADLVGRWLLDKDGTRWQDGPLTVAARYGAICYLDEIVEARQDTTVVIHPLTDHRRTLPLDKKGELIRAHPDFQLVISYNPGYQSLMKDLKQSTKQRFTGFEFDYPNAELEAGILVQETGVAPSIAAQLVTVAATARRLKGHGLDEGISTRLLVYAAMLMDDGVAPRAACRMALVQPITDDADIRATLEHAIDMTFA

## Nc1ncnc2c1ncn2[C@@H]1O[C@H](COP(=O)(O)OP(=O)(O)OP(=O)(O)O)[C@@H](O)[C@H]1O [ATP]
Q2O2 [1]
  coupled ATPase assay (NADH oxidation): The W83L and W83F mutants displayed three and twofold increased basal ATPase activities
AfQ2
  coupled ATPase assay (NADH oxidation): Both AfQ2 and Q2O2ΔC444 displayed a low ATPase activity
Q2O2 [2]
  coupled ATPase assay (NADH oxidation): The W83L and W83F mutants displayed three and twofold increased basal ATPase activities

## O=C(COP(=O)(O)O)[C@H](O)[C@H](O)COP(=O)(O)O [RuBP, ribulose-1,5-bisphosphate]
AfM [3]
  spectrophotometric coupled rubisco assay: the activities of both AfM ECM and ER rapidly converged to a low rate

## O=C(O)[C@@](O)(COP(=O)(O)O)[C@H](O)[C@H](O)COP(=O)(O)O (mixture of isomers) [CABP, carboxyarabinitol-1,5-bisphosphate]
AfM [4]
  spectrophotometric coupled rubisco assay of ECMC complex: AfM bound to the transition state analogue CABP (ECMC) formed stable and inactive complexes
AfLS
  spectrophotometric coupled rubisco assay of ECMC complex: the form I (AfLS) ER and ECMC complexes were inactive
